Patent US9199975B2, “Biaryl imidazole derivatives for regulating CYP17” (Asana Biosciences, LLC, priority 2011, dated 2015)

Key:
[1] = target: T1, rat CYP17 (Rattus norvegicus, UniProt P11715); assay: CYP17 inhibition assay in rat testicular microsomes; format: biochemical; details: 3H3-17α-hydroxypregnenolone substrate, 60 minutes at 37° C.
T1 construct: Rat testis tissue was collected and disrupted with 30 strokes of a glass homogenizer; from tissue; host or cells: rat testis (microsomal fraction)
T1 sequence (P11715 1-507): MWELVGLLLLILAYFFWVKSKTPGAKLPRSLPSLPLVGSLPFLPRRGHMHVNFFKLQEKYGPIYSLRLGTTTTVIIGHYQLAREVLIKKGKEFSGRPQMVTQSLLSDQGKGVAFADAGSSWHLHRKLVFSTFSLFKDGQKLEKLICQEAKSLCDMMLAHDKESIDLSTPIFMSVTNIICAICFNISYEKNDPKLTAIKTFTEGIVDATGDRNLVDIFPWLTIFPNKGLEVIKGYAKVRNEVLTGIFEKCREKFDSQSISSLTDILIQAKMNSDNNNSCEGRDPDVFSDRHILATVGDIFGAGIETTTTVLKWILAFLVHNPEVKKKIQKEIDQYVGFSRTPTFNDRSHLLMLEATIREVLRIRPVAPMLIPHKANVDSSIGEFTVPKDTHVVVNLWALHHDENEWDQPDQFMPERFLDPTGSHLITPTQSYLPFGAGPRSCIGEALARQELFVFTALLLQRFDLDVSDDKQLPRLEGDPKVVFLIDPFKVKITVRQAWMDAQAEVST
Experimental: (§1) CYP17 Inhibition Assay in Rat Testicular Microsomes (Rat CYP17) or Yeast Microsome Overexpressing Human CYP17
(§2) A. Materials • 1. NADPH (Sigma): A working stock was prepared by adding 25 μL of 6.5 mM NADPH in each tube. The final concentration of NADPH used in the assay was 325 μM. • 2. Potassium Phosphate Buffer: One molar (1M) solutions of K2HPO4 and KH2PO4 were prepared. Eight mL of the 1 M KH2PO4 and 1.98 mL of the 1 M K2HPO4 were combined and the pH was adjusted to 7.4. • 3. ^3H3-17α-hydroxypregnenolone (American Radiolabeled Chemicals, Inc., stock 1 μCi/μL): A 1:1 dilution of ^3H3-17α-hydroxypregnenolone in ethanol was prepared by combining 100 μL ^3H3-17α-hydroxypregnenolone+100 μL ethanol for one complete 96 well plate. For the reaction, 2 μL of the diluted ^3H3-17α-hydroxypregnenolone was added in each tube, i.e., 1 μCi/reaction. • 4. Microsome Isolation Buffer: The microsome isolation buffer was prepared by combining 250 mM Sucrose, 5 mM EDTA, 10 mM Tris HCl, 4 mM DTT, and adjusting to pH 7.4. • 5. TEG Buffer: The TEG buffer was prepared by combining 50 mM Tris HCl, 1 mM EDTA, and 20% Glycerol. • 6. Rat Testicular Microsomes: Rat testis tissue was collected and disrupted with 30 strokes of a glass homogenizer on ice with 250 μL of microsome isolation buffer, followed by centrifugation at 10,000 g for 10 minutes at 4° C. The supernatant was collected and centrifuged at 100,000 g for 45 minutes at 4° C. The pellet was dissolved in TEG Buffer and the protein was quantified. The homogenized microsome samples were then frozen at −80° C. • 7. Yeast Microsomes which overexpress the human CYP17 enzyme were obtained from Premas Biotech, India.
(§3) Potassium phosphate buffer (470 μL) was prepared as described above and was added to each well of a deep well plate. The test compound was diluted using a TECAN liquid handler and 5 μL of diluted compound was transferred to each well (96 deep well/1 mL). A solution (25 μL) of 6.5 mM NADPH was added (final concentration of 325 µM in the assay). ^3H3-17α-hydroxypregnenolone (2 μL of the working stock) was added to each tube. The plates were then pre-incubated for 15 minutes at 37° C. Following the pre-incubation, either 5 μL rat testicular microsomes (150-160 μg) or 5 μL of yeast microsomes expressing human CYP17 (1.7 pmol), was added. Incubation was at 37° C. for 60 minutes in the presence of oxygen. The plates were then placed in ice and chloroform (500 μL) was added, mixed well and incubated at 4° C. for 20 minutes. The plates were then centrifuged at 1000 rpm for 15 minutes at 4° C.
(§4) A portion (300 μL) of the aqueous solution was collected and mixed with a 5% aqueous suspension of activated charcoal (300 μL). The plates were then incubated at 4° C. for 30 minutes, after which the plates were centrifuged at 1000 rpm for 15 minutes at 4° C. From this, 125 μL of the aqueous solution was collected and plated into a 96 well plate. Microscint™ 40 [125 μL, Perkin-Elmer; containing a mixture of a polymer based on alkylphenolethoxylate (20-40%), diethanolamine-phosphoric acid ester ammonium salt (10-20%), sodium dioctyl sulphosuccinate (2.5-10%), triethyl phosphate (2.5-10%), 3,6-dimethyl-4-octyne-3,6-diol (≦2.5%), a polymer based on nonylphenolethoxylate (≦2.5%), diisopropyl naphthalene isomers (40-60%), 2,5-diphenyloxazole (≦2.5%), and 9,10-dimethylanthracene] was added and mixed well. After 30 minutes of incubation, the samples were analyzed with a MicroBeta® Trilux microplate liquid scintillation counter and luminometer (Perkin-Elmer).

[2] = target: T2, human CYP17 (Homo sapiens, UniProt P05093); assay: CYP17 inhibition assay in yeast microsomes overexpressing human CYP17; format: biochemical; details: yeast microsomes expressing human CYP17, 3H3-17α-hydroxypregnenolone substrate, 60 minutes at 37° C.
T2 sequence (P05093 1-508): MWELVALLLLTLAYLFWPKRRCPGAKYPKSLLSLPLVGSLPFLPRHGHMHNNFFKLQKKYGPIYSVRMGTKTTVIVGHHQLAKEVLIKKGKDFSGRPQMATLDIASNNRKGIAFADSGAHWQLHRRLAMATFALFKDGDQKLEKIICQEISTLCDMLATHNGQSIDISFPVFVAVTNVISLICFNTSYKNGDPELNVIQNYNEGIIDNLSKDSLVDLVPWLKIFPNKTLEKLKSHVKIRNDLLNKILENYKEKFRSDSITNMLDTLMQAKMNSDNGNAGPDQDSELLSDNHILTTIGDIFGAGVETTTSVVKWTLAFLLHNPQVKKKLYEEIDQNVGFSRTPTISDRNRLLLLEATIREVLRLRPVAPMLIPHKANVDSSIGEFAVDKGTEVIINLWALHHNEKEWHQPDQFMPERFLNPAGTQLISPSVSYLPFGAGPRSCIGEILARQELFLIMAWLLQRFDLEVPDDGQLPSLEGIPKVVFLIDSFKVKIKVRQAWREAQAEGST
Experimental: as §1, §2, §3, §4

IC50 [1] [nM]	IC50 [2] [nM]	Compound
< 50	201 to 10000	CCC(c1cnc(-c2ccc(OC)cc2)s1)n1ccnc1 (centres unmarked) [Example 35, 5-(1-Imidazol-1-yl-propyl)-2-(4-methoxy-phenyl)-thiazole]
50 to 200	201 to 10000	CCC(c1cnc(-c2ccc(O)cc2)s1)n1ccnc1 (centres unmarked) [Example 60, 4-[5-(1-Imidazol-1-yl-propyl)-thiazol-2-yl]-phenol]
< 50	201 to 10000	CCC(c1cccc(-c2ccc(OC)cc2)n1)n1ccnc1 (centres unmarked) [Example 38, 2-(1-Imidazol-1-yl-propyl)-6-(4-methoxy-phenyl) pyridine]
< 50	< 50	CCC(c1ccc(-c2ccc(O)cc2)o1)n1ccnc1 (centres unmarked) [Example 30, 4-[5-(1-Imidazol-1-yl-propyl)-furan-2-yl]-phenol]
< 50	< 50	CCC(c1ccc(-c2cccc(O)c2)cn1)n1ccnc1 (centres unmarked) [Example 8, 3-(6-(1-(1H-imidazol-1-yl)propyl)pyridin-3-yl)phenol]
< 50	< 50	CCC(c1ccc(-c2ccc(OC)cc2)o1)n1ccnc1 (centres unmarked) [Example 27, 1-{1-[5-(4-Methoxy-phenyl)-furan-2-y]-propyl}-1H-imidazole]
< 50	50 to 200	COc1ccc(-c2ccc(C(C)(C)n3ccnc3)s2)cc1 [Example 24, 1-(2-(5-(4-methoxyphenyl)-thiophen-2-yl)-propan-2-yl)-1H-imidazole]
< 50	201 to 10000	CCC(c1ccc(-c2ccccc2OC)cn1)n1ccnc1 (centres unmarked) [Example 56, 2-(1-Imidazol-1-yl-propyl)-5-(2-methoxy-phenyl)-pyridine]
< 50	50 to 200	CC(c1ccc(-c2ccc(O)cc2)s1)n1ccnc1 (centres unmarked) [Example 49, 4-[5-(1-Imidazol-1-yl-ethyl)-thiophen-2-yl]-phenol]
< 50		CCC(c1cnc(-c2ccc(F)cc2F)s1)n1ccnc1 (centres unmarked) [Example 32, 2-(2,4-Difluoro-phenyl)-5-(1-imidazol-1-yl-propyl)-thiazole]
201 to 10000		CC(c1cnc(-c2ccc(C(=O)O)cc2)s1)n1ccnc1 (centres unmarked) [Example 65, 4-[5-(1-Imidazol-1-yl-ethyl)-thiazol-2-yl]-benzoic acid]
< 50		CC(C)(c1ccc(-c2ccc(O)cc2)s1)n1ccnc1 [Example 26, 4-[5-(1-Imidazol-1-yl-1-methyl-ethyl)-thiophen-2-yl]-phenol]
< 50		CCC(c1ccc(-c2ccc(C(=O)NC)cc2)cn1)n1ccnc1 (centres unmarked) [Example 9, 4-(6-(1-(1H-imidazol-1-yl)propyl)pyridin-3-yl)-N-methylbenzamide]
201 to 10000		CCC(c1ccc(-c2ccc(C(=O)O)cc2)cn1)n1ccnc1 (centres unmarked) [Example 6, 4-(6-(1-(1H-imidazol-1-yl)propyl)pyridin-3-yl)benzoic acid]
< 50	< 50	CCC(c1ccc(-c2cccc(OC)c2)cn1)n1ccnc1 (centres unmarked) [Example 7, 2-(1-(1H-imidazol-1-yl)propyl)-5-(3-methoxyphenyl)pyridine]
< 50		COc1ccc(-c2ccc(C(C)n3ccnc3)s2)cn1 (centres unmarked) [Example 25, 5-[5-(1-Imidazol-1-yl-ethyl)-thiophen-2-yl]-2-methoxy-pyridine]
50 to 200		COc1ccc(-c2ncc(C(C)n3ccnc3)s2)cn1 (centres unmarked) [Example 58, 5-[5-(1-Imidazol-1-yl-ethyl)-thiazol-2-yl]-2-methoxy-pyridine]
< 50		COc1ccc(-c2cccc(C(C)n3ccnc3)n2)cc1 (centres unmarked) [Example 42, 2-(1-Imidazol-1-yl-ethyl)-6-(4-methoxy-phenyl)-pyridine]
< 50	50 to 200	CCC(c1ccc(-c2ccccc2O)cn1)n1ccnc1 (centres unmarked) [Example 37, 2-[6-(1-Imidazol-1-yl-propyl)-pyridin-3-yl]-phenol]
50 to 200		COc1ccc(-c2ccc(C(C)n3ccnc3)nc2)cc1 (centres unmarked) [Example 15, 2-(1-(1H-imidazol-1-yl)ethyl)-5-(4-methoxyphenyl)pyridine]
< 50	< 50	CCC(c1ccc(-c2ccc(O)cc2)cn1)n1ccnc1 (centres unmarked) [Example 50, 4-[6-(1-Imidazol-1-yl-propyl)-pyridin-3-yl]-phenol]
< 50		CCC(c1ccc(-c2ccc(F)cc2)cn1)n1ccnc1 (centres unmarked) [Example 29, 5-(4-Fluoro-phenyl)-2-(1-imidazol-1-yl-propyl)-pyridine]
< 50	201 to 10000	CCC(c1ccc(-c2ccc(OC)cc2)cn1)n1ccnc1 (centres unmarked) [Example 47, 2-(1-Imidazol-1-yl-propyl)-5-(4-methoxy-phenyl)-pyridine]
< 50		CCC(c1cnc(-c2ccc(OC)nc2)s1)n1ccnc1 (centres unmarked) [Example 51, 5-[5-(1-Imidazol-1-yl-propyl)-thiazol-2-yl]-2-methoxy-pyridine]
< 50		CCC(c1cnc(-c2ccc(NC(=O)OC(C)(C)C)cc2)s1)n1ccnc1 (centres unmarked) [Example 31, {4-[5-(1-Imidazol-1-yl-propyl)-thiazol-2-yl]-phenyl}-carbamic acid tert-butyl ester]
< 50		CCC(c1cnc(-c2cn[nH]c2)s1)n1ccnc1 (centres unmarked) [Example 44, 5-(1-Imidazol-1-yl-propyl)-2-(1H-pyrazol-4-yl)-thiazole]

Compound	IC50 [1] [nM]	IC50 [2] [nM]
CC(c1cnc(-c2ccc(F)cc2F)s1)n1ccnc1 (centres unmarked) [Example 28, 2-(2,4-Difluoro-phenyl)-5-(1-imidazol-1-yl-ethyl)-thiazole]	< 50	50 to 200
CC(c1ccc(-c2ccc(=O)n(C)c2)s1)n1ccnc1 (centres unmarked) [Example 20, 5-(5-(1-(1H-imidazol-1-yl)ethyl)thiophen-2-yl)-1-methylpyridin-2(1H)-one]	< 50	201 to 10000
CC(c1ccc(-c2ccc(=O)n(C(C)C)c2)s1)n1ccnc1 (centres unmarked) [Example 21, 5-(5-(1-(1H-imidazol-1-yl)ethyl)thiophen-2-yl)-1-isopropylpyridin-2(1H)-one]	< 50	
